From patent US20230063059A1, “SUBSTANCE INTERACTING WITH C TERMINAL FRAGMENT OF THE STIM1 FRACTION LOCALIZED TO THE PLASMA MEMBRANE OF THE CELLS, FOR ITS USE IN THE TREATMENT OF CANCERS, AND IN SCREENING AND DIAGNOSTIC METHODS” (UNIVERSITÉ DE BRETAGNE OCCIDENTALE - UBO, priority 2019, published 2023)

Tests used:
Type in all cases: cell-based
Conditions in all cases: Gemcitabine alone, low dose 15 nM, 48 hours
[1] = test system: Panc-1-Wt pancreatic cancer cells; experiment: Cell survival, CCK8 kit
Procedure: (§1) For cell proliferation, cytotoxicity, and cell survival measurements, […] were seeded in 96 wells plates in 100 μL of DMEM medium. Cells were incubated for 48H hours at 37° C. with an anti-STIM1 antibody targeting the C terminal of STIM1 (CDN3H4, Santa Cruz; HPA011088 or HPA012123 clones, Sigma). Cell proliferation was evaluated using the Cell Titer kit proliferation assay (Promega). Cytotoxicity was evaluated using the Cell Tox green cytotoxicity assay (Promega) and cell survival measured using the CCK8 kit from Sigma. All these kits were used following manufacturer recommendations and using a plate reader
as §1, with “with 5 μg/ml of the” for “with an”, “Santa Cruz) alone, with 15 nM Gemcitabine alone” for “Santa Cruz; HPA011088”, “or with both 5 ug/ml of the anti-STIM1 clone CDN3H4 and 15 nM Gemcitabine. Relevant controls (isotype or/and DMSO treatments) were also realized.” for “or HPA012123 clones, Sigma).”

[2] = test system: Panc-1-Wt pancreatic cancer cells; experiment: Cell proliferation, Cell Titer kit proliferation assay
Procedure: as §1
as §1, with “with 5 μg/ml of the” for “with an”, “Santa Cruz) alone, with 15 nM Gemcitabine alone” for “Santa Cruz; HPA011088”, “or with both 5 ug/ml of the anti-STIM1 clone CDN3H4 and 15 nM Gemcitabine. Relevant controls (isotype or/and DMSO treatments) were also realized.” for “or HPA012123 clones, Sigma).”

[3] = test system: Panc-1-Wt pancreatic cancer cells; experiment: Cytotoxicity, Cell Tox green cytotoxicity assay
Procedure: as §1
as §1, with “with 5 μg/ml of the” for “with an”, “Santa Cruz) alone, with 15 nM Gemcitabine alone” for “Santa Cruz; HPA011088”, “or with both 5 ug/ml of the anti-STIM1 clone CDN3H4 and 15 nM Gemcitabine. Relevant controls (isotype or/and DMSO treatments) were also realized.” for “or HPA012123 clones, Sigma).”

Nc1ccn([C@@H]2O[C@H](CO)[C@@H](O)C2(F)F)c(=O)n1 [Gemcitabine]
survival of pancreatic cancer cells [1]: slightly but significantly reduce
proliferation of pancreatic cancer cells [2]: slightly but significantly reduce
cell cytotoxicity [3]: without inducing cell cytotoxicity
